Key:
[1] = Toxicity in Artemia salina by brine shrimp lethality assay; conditions: in vivo
[2] = Toxicity in mouse assessed as induction of mortality; conditions: in vivo

Structure (SMILES): O=C1C[C@@H]2OCC=C3CN4CC[C@]56c7ccccc7N1[C@H]5[C@H]2[C@H]3C[C@H]46.O=S(=O)(O)O
- LC50 [1]: 200 µM
- LD50 [2]: < 2 mg/kg

Reference: ChEMBL document CHEMBL4339240, “Structural Elucidation of Presilphiperfolane-7α,8α-diol, a Bioactive Sesquiterpenoid from Pulicaria vulgaris: A Combined Approach of Solvent-Induced Chemical Shifts, GIAO Calculation of Chemical Shifts, and Full Spin Analysis” (J Nat Prod, 2019)
